Measurements reported in patent US8853424B2 (Japan Science and Technology Agency, priority 2008, dated 2014).

Assays:
transglutaminase (TGase) = experiment: Measurement of TG (TGase inhibitory activity, monodansyl cadaverine / N,N-dimethylcasein fluorescence, FDSS 3000); assay type: biochemical
Method in brief: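 Compound (1 μL of 10 mM stock) added to 0.1 mL reaction: 100 mM HEPES-NaOH pH 7.5, 1 mM CaCl2, 20 μM monodansyl cadaverine, 0.05 mg/mL N,N-dimethylcasein, 5 μg/mL TGase. Rate of fluorescence change at 340 nm measured; DMSO control set to 100; TG50 is the concentration halving activity.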

[1] = tested on: Truncated N-terminal huntington 150 Q-EGFP-Neuron 2a cells; experiment: Measurement of x-Fold (polyglutamine aggregation inhibitory activity); assay type: cell-based
Protocol: In the present invention, the polyglutamine aggregation inhibitory activity (x-Fold) can be measured, for example, by the method described in the Example.
The number of the aggregated cells, and the total number of cells were counted by Array Scan V T1 (manufactured by Cellomics, Pittuburg, USA), and the ratio of the aggregated cells to the total number of cells was determined (x-Fold). […]

[2] = TGase activity with compound (10 mM, 1 μL in 0.1 ml enzyme reaction solution), DMSO control taken as 100
[3] = ratio of aggregated cells to total number of cells, compound 20 μM, 20 hr, almost 1 without compound, smaller = stronger inhibition
[4] = TGase inhibitory activity value, Table 1
[5] = polyglutamine aggregation inhibitory activity, Table 1

| TGase activity remaining (% of DMSO control = 100) (transglutaminase (TGase); [2]) | TGase activity remaining (% of DMSO control = 100) (transglutaminase (TGase); [4]) | Compound | x-Fold [1, 3] | x-Fold [1, 5] | further results |
| --- | --- | --- | --- | --- | --- |
| 98 |  | Cc1ccc(Cl)cc1B(OCC1CCCCN1)c1cc(Cl)ccc1C (centres unmarked) [Example 242, di(5-chloro-2-methylphenyl) 2-piperidinomethylborinate] | 1.17 |  |  |
| 94 |  | NCCCC(N)C(=O)OB(c1ccccc1)c1ccccc1 (centres unmarked) [Example 245, diphenyl(ornithine-O,N)borane] | 0.91 |  | TGase activity remaining (% of DMSO control = 100) (transglutaminase (TGase); TGase inhibitory activity value, Table 1, listed as 921): 94; x-Fold ([1]; polyglutamine aggregation inhibitory activity, Table 1, listed as 921): 0.91 |
| 94 |  | CCCCNCCOB(c1cc(Cl)ccc1C)c1cc(Cl)ccc1C [Example 246, di(5-chloro-2-methylphenyl) 2-butylaminoethylborinate] | 0.67 |  |  |
| 103 |  | Cc1ccc(B(OCCC2CCCCN2)c2ccc(C)c(Cl)c2)cc1Cl (centres unmarked) [Example 248] | 0.87 |  |  |
| 121 |  | Cc1ccc(B(O)c2ccc(Oc3ccc(B(O)c4ccc(C)c(Cl)c4)cc3)cc2)cc1Cl [Example 251, bis(3-chloro-4-methylphenyl hydroxyborylphenyl)ether] | 0.83 |  |  |
| 101 | 101 | NCC(=O)OB(c1ccccc1)c1ccccc1 [Example 254, diphenyl(glycinate-O,N)borane] | 0.95 | 0.95 |  |
| 103 | 103 | O=C(O)CC1[NH2+][B-](c2ccccc2)(c2ccccc2)OC1=O (centres unmarked) [Example 257] | 0.98 | 0.98 |  |
| 109 | 109 | CC(C)CC(N)C(=O)OB(c1ccccc1)c1ccccc1 (centres unmarked) [Example 261, diphenyl(leucinate-O,N)borane] | 0.89 | 0.89 |  |
| 112 | 112 | CC(O)C(N)C(=O)OB(c1ccccc1)c1ccccc1 (centres unmarked) [Example 265, diphenyl(threoninate-O,N)borane] | 0.94 | 0.94 |  |
| 105 |  | NC(=O)CCC(N)C(=O)OB(c1ccccc1)c1ccccc1 (centres unmarked) [Example 276, diphenyl(glutaminate-O,N)borane] | 0.8 |  | TGase activity remaining (% of DMSO control = 100) (transglutaminase (TGase); TGase inhibitory activity value, Table 1, listed as 854): 105; x-Fold ([1]; polyglutamine aggregation inhibitory activity, Table 1, listed as 854): 0.8 |
| 103 | 103 | O=C(OB(c1ccccc1)c1ccccc1)C1CNCCN1 (centres unmarked) [Example 279, diphenyl(2-piperazinecarboxy)borane] | 0.98 | 0.98 |  |
| 98 |  | NCCC(N)C(=O)OB(c1ccccc1)c1ccccc1 (centres unmarked) [Example 280, diphenyl(2,4-diaminolacetic acid)borane] | 0.88 |  | TGase activity remaining (% of DMSO control = 100) (transglutaminase (TGase); TGase inhibitory activity value, Table 1, listed as 897): 98; x-Fold ([1]; polyglutamine aggregation inhibitory activity, Table 1, listed as 897): 0.88 |
| 77 |  | Cc1ccc(B(OC(=O)c2ccccn2)c2ccc(C)c(Cl)c2)cc1Cl [Example 281, di(3-chloro-4-methylphenyl)-(picolinate-O,N)borane] | 0.94 |  |  |
| 89 | 89 | O=C(OB(c1ccc(C(F)(F)F)cc1)c1ccc(C(F)(F)F)cc1)c1ccccn1 [Example 284, di(4-trifluoromethylphenyl) (picolinate-O,N)borane] | 1.03 | 1.03 |  |

Continued, molecule first:

| Compound | TGase activity remaining (% of DMSO control = 100) (transglutaminase (TGase); [2]) | TGase activity remaining (% of DMSO control = 100) (transglutaminase (TGase); [4]) | x-Fold [1, 3] | x-Fold [1, 5] | further results |
| --- | --- | --- | --- | --- | --- |
| Cc1ccc(B(OC(=O)c2ccccn2)c2ccc(C)c(Cl)c2)cc1Cl [Example 221, di(3-chloro-4-methylphenyl)(2-pyridine carboxylate-O,N)borane] | 73 |  | 0.94 |  |  |
| NC(c1ccccc1)C(OB(c1ccccc1)c1ccccc1)c1ccccc1 (centres unmarked) [Example 224, diphenyl 1-(2-aminobenzyl) 1-phenylmethylborinate] | 112 | 112 | 0.89 | 0.89 |  |
| CCCCC(N)C(=O)OB(c1ccccc1)c1ccccc1 (centres unmarked) [Example 226, diphenyl(2-aminohexanecarboxylate-O,N)borane] | 97 | 97 | 0.94 | 0.94 |  |
| CCCCC(N)C(=O)OB(c1ccc(C)c(Cl)c1)c1ccc(C)c(Cl)c1 (centres unmarked) [Example 227, di(3-chloro-4-methylphenyl)(norloysinate-O,N)borane] | 110 |  | 0.99 |  | TGase activity remaining (% of DMSO control = 100) (transglutaminase (TGase); TGase inhibitory activity value, Table 1, listed as 4130): 110; x-Fold ([1]; polyglutamine aggregation inhibitory activity, Table 1, listed as 4130): 0.99 |
| CCC(N)COB(c1ccccc1)c1ccccc1 (centres unmarked) [Example 228, diphenyl 2-aminobutylborinate] | 99 | 99 | 0.98 | 0.98 |  |
| OB(c1ccc(Cl)c(F)c1)c1ccc(Cl)c(F)c1 [Example 231, di(3-fluoro-4-chlorophenyl)borinic acid] | 94 |  | 1.01 |  | TGase activity remaining (% of DMSO control = 100) (transglutaminase (TGase); TGase inhibitory activity value, Table 1, listed as 4140): 94; x-Fold ([1]; polyglutamine aggregation inhibitory activity, Table 1, listed as 4140): 1.01 |
| CN(C)CCOB(c1ccc(C(F)(F)F)cc1)c1ccc(C(F)(F)F)cc1 [Example 233] | 112 |  | 1.12 |  | TGase activity remaining (% of DMSO control = 100) (transglutaminase (TGase); TGase inhibitory activity value, Table 1, listed as 4142): 112; x-Fold ([1]; polyglutamine aggregation inhibitory activity, Table 1, listed as 4142): 1.12 |
| NCC(CN)OB(c1ccc(Cl)c(F)c1)c1ccc(Cl)c(F)c1 [Example 235] | 80 | 80 | 1.03 | 1.03 |  |
| CC(C)(N)COB(c1ccc(Cl)c(F)c1)c1ccc(Cl)c(F)c1 [Example 236, di(4-chloro-3-fluorophenyl) 2-amino-2-methyl-propyl-borinate] | 87 | 87 | 1.10 | 1.10 |  |
| Fc1cc(B(OCCNc2ccccc2)c2ccc(Cl)c(F)c2)ccc1Cl [Example 237, di(4-chloro-3-fluorophenyl) 2-phenylaminoethyl borinate] | 88 | 88 | 1.15 | 1.15 |  |
| CC(O)C(N)COB(c1ccc(Cl)c(F)c1)c1ccc(Cl)c(F)c1 (centres unmarked) [Example 238, di(4-chloro-3-fluorophenyl) 2-amino-3-hydroxybutyl borinate] | 87 | 87 | 1.07 | 1.07 |  |
| c1ccc(B(OCCN2CCN(CCOB(c3ccccc3)c3ccccc3)CC2)c2ccccc2)cc1 [Example 239, bis(diphenyl piperazino-O,O-ethoxyborane)] | 126 |  | 0.94 |  |  |
| OB(c1cccc(Cl)c1)c1cccc(Cl)c1 [Example 241, di(3-chlorophenyl)borinic acid] | 67 |  | 1.10 |  |  |
